Source: ChEMBL document CHEMBL1201862, “PubChem BioAssay data set” (2004)
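The compound was tested at five concentrations on cells cultured in 96-well plates, with a 48-hour exposure period. Abbreviation: GI50, concentration required for 50% inhibition of growth.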 The source made the active and inactive calls. No stated cut-off is given here; in the data, active = GI50 up to about 1.1 µM and inactive = higher.

Key:
Experiment in all cases: NCI tumour cell line growth inhibition, 48 h
LOX IMVI = system: LOX IMVI
HT-29 = system: HT-29
HOP-62 = system: HOP-62
SF-295 = system: SF-295
SF-539 = system: SF-539
A498 = system: A498
SR = system: SR
UO-31 = system: UO-31
K562 = system: K562
UACC-257 = system: UACC-257
MOLT-4 = system: MOLT-4
IGROV-1 = system: IGROV-1
UACC-62 = system: UACC-62
OVCAR-5 = system: OVCAR-5
OVCAR-8 = system: OVCAR-8
SF-268 = system: SF-268
CAKI-1 = system: CAKI-1
SK-MEL-28 = system: SK-MEL-28
NCI-H23 = system: NCI-H23
EKVX = system: EKVX

Measured: GI50

O=C1/C(=N\O)c2ccccc2S1(=O)=O
inactive: LOX IMVI > 100 µM | HT-29 > 100 µM | HOP-62 > 100 µM | SF-295 > 100 µM | SF-539 > 100 µM | A498 39.7 µM | SR 79.3 µM | UO-31 > 100 µM | K562 > 100 µM | UACC-257 > 100 µM | MOLT-4 > 100 µM | IGROV-1 > 100 µM | UACC-62 95.9 µM | OVCAR-5 > 100 µM | OVCAR-8 > 100 µM | SF-268 80.9 µM | CAKI-1 16.6 µM

C/C(Cl)=N\OC(=O)Nc1ccccc1C(F)(F)F
inactive: SK-MEL-28 17.8 µM | NCI-H23 > 100 µM | LOX IMVI 14.9 µM | HT-29 18.9 µM | SF-295 > 100 µM | SF-539 > 100 µM | A498 > 100 µM | SR 17.1 µM | UO-31 64.9 µM | K562 19 µM | UACC-257 > 100 µM | MOLT-4 18.5 µM | IGROV-1 > 100 µM | OVCAR-5 42.6 µM | OVCAR-8 38.9 µM | SF-268 > 100 µM | CAKI-1 > 100 µM | EKVX 19.9 µM

C/C(=N/NC(=O)CC(=O)N(C(=O)c1ccccc1Cl)c1ccc(C)cc1)c1cc2ccccc2oc1=O
inactive: SK-MEL-28 > 100 µM | NCI-H23 45.5 µM | LOX IMVI 73.1 µM | HT-29 > 100 µM | HOP-62 > 100 µM | SF-295 > 100 µM | SF-539 > 100 µM | A498 > 100 µM | SR 6.11 µM | UO-31 > 100 µM | K562 > 100 µM | UACC-257 > 100 µM | IGROV-1 > 100 µM | UACC-62 > 100 µM | OVCAR-5 > 100 µM | OVCAR-8 > 100 µM | SF-268 > 100 µM | CAKI-1 > 100 µM | EKVX > 100 µM

O=C1CCCSC(=O)N1Cc1ccccc1
inactive: SK-MEL-28 > 100 µM | NCI-H23 > 100 µM | LOX IMVI > 100 µM | HT-29 > 100 µM | HOP-62 > 100 µM | SF-295 > 100 µM | SF-539 > 100 µM | A498 > 100 µM | SR > 100 µM | UACC-257 > 100 µM | MOLT-4 > 100 µM | IGROV-1 > 100 µM | UACC-62 > 100 µM | OVCAR-5 > 100 µM | OVCAR-8 > 100 µM | SF-268 > 100 µM | CAKI-1 > 100 µM | EKVX > 100 µM

COc1ccc(C(C2=C(O)COC2=O)c2cc3c(cc2O)OCO3)cc1OC (centres undefined)
inactive: SK-MEL-28 > 100 µM | LOX IMVI > 100 µM | HT-29 > 100 µM | HOP-62 > 100 µM | SF-295 > 100 µM | SF-539 > 100 µM | A498 > 100 µM | SR > 100 µM | UO-31 > 100 µM | K562 > 100 µM | UACC-257 > 100 µM | MOLT-4 > 100 µM | IGROV-1 > 100 µM | UACC-62 > 100 µM | OVCAR-5 > 100 µM | OVCAR-8 > 100 µM | SF-268 > 100 µM | CAKI-1 > 100 µM | EKVX > 100 µM

Cc1cc2c(cc1C(=O)CCC(=O)O)CC1(C2)Cc2cc(C)c(C(=O)CCC(=O)O)cc2C1
inactive: SK-MEL-28 > 100 µM | NCI-H23 > 100 µM | LOX IMVI > 100 µM | HT-29 > 100 µM | HOP-62 > 100 µM | SF-295 > 100 µM | SF-539 > 100 µM | A498 > 100 µM | SR > 100 µM | UO-31 > 100 µM | K562 > 100 µM | UACC-257 > 100 µM | MOLT-4 > 100 µM | IGROV-1 > 100 µM | OVCAR-5 > 100 µM | OVCAR-8 > 100 µM | SF-268 > 100 µM | CAKI-1 > 100 µM | EKVX > 100 µM

N#Cc1ccsc1Nc1ccccc1[N+](=O)[O-]
inactive: SK-MEL-28 > 100 µM | NCI-H23 > 100 µM | HOP-62 38.1 µM | SF-295 64.1 µM | SF-539 > 100 µM | A498 > 100 µM | SR > 100 µM | UO-31 > 100 µM | K562 > 100 µM | UACC-257 > 100 µM | MOLT-4 > 100 µM | IGROV-1 > 100 µM | UACC-62 > 100 µM | OVCAR-5 > 100 µM | OVCAR-8 > 100 µM | SF-268 47 µM | CAKI-1 > 100 µM | EKVX 36.6 µM

O=C(C/C=C/c1ccccc1)c1ccccc1
inactive: SK-MEL-28 27.2 µM | NCI-H23 15.1 µM | LOX IMVI 12 µM | HT-29 18.2 µM | HOP-62 26.9 µM | SF-295 44.4 µM | SF-539 25 µM | A498 15.7 µM | SR 12.4 µM | UO-31 14.1 µM | UACC-257 21.9 µM | MOLT-4 20.8 µM | IGROV-1 23.5 µM | UACC-62 12.6 µM | OVCAR-5 28.6 µM | OVCAR-8 15.7 µM | SF-268 20.7 µM | CAKI-1 17 µM | EKVX 35.5 µM

CC(C)C(=O)OCN(C)c1nc(N(C)COC(=O)C(C)C)nc(N(C)COC(=O)C(C)C)n1
inactive: SK-MEL-28 19.8 µM | NCI-H23 20.7 µM | LOX IMVI 14.6 µM | HT-29 25.2 µM | HOP-62 33.2 µM | SF-295 27.3 µM | SF-539 23.2 µM | A498 36 µM | SR 22.8 µM | UO-31 22.2 µM | K562 30.5 µM | UACC-257 19.1 µM | MOLT-4 22.3 µM | OVCAR-5 27.7 µM | OVCAR-8 19.8 µM | SF-268 > 10 µM | CAKI-1 34.5 µM | EKVX > 100 µM

CCOC(=O)c1c(N2CCCC2)[nH]c(=O)c(C(c2cccs2)c2c(O)c(C(=O)OCC)c(N3CCCC3)[nH]c2=O)c1O
inactive: SK-MEL-28 > 100 µM | NCI-H23 > 100 µM | LOX IMVI > 100 µM | HT-29 > 100 µM | HOP-62 > 100 µM | SF-295 > 100 µM | SF-539 > 100 µM | A498 > 100 µM | SR > 100 µM | UO-31 > 100 µM | K562 > 100 µM | UACC-257 > 100 µM | MOLT-4 > 100 µM | UACC-62 > 100 µM | OVCAR-5 > 100 µM | OVCAR-8 > 100 µM | SF-268 > 100 µM | CAKI-1 > 100 µM | EKVX > 100 µM

COc1ccc(OC)c2sc(N3C(=O)/C(=C/c4ccc(N(C)C)cc4)N=C3c3ccccc3)nc12
inactive: SK-MEL-28 > 100 µM | LOX IMVI 41 µM | HT-29 61.8 µM | HOP-62 > 100 µM | SF-295 > 100 µM | SF-539 98.2 µM | A498 87.7 µM | SR 19.6 µM | UO-31 55 µM | K562 79.8 µM | UACC-257 > 100 µM | MOLT-4 15.5 µM | IGROV-1 > 100 µM | UACC-62 28.3 µM | OVCAR-5 > 100 µM | OVCAR-8 78.5 µM | SF-268 > 100 µM | CAKI-1 > 100 µM | EKVX > 100 µM

Cc1cc2nc3ccccc3n2c2nc(N)ccc12
inactive: NCI-H23 43 µM | LOX IMVI 22.1 µM | HT-29 34.3 µM | HOP-62 26.3 µM | SF-295 23.3 µM | SF-539 26.5 µM | A498 46.1 µM | SR 13.5 µM | UO-31 16.3 µM | K562 54.1 µM | UACC-257 > 100 µM | MOLT-4 17.7 µM | IGROV-1 28.1 µM | UACC-62 39.3 µM | OVCAR-5 61.2 µM | OVCAR-8 15.8 µM | SF-268 37.1 µM | CAKI-1 20.9 µM | EKVX 53 µM

O=C(O)CSC(CC1(c2ccc(Cl)cc2)NC(=O)CS1)c1ccc(Cl)cc1 (centres undefined)
inactive: NCI-H23 > 100 µM | LOX IMVI > 100 µM | HT-29 > 100 µM | HOP-62 > 100 µM | SF-295 > 100 µM | SF-539 > 100 µM | A498 > 100 µM | SR > 100 µM | UO-31 > 100 µM | K562 > 100 µM | UACC-257 65.9 µM | MOLT-4 > 100 µM | IGROV-1 > 100 µM | UACC-62 85.1 µM | OVCAR-5 > 100 µM | OVCAR-8 > 100 µM | SF-268 > 100 µM | CAKI-1 > 100 µM | EKVX > 100 µM

O=C1c2cc3c(cc2CC12Cc1cc4c(cc1C2)CCC4)CCC3
inactive: SK-MEL-28 > 100 µM | NCI-H23 > 100 µM | LOX IMVI > 100 µM | HT-29 93.8 µM | HOP-62 > 100 µM | SF-295 > 100 µM | SF-539 > 100 µM | A498 > 100 µM | SR > 100 µM | UO-31 > 100 µM | K562 27 µM | UACC-257 > 100 µM | MOLT-4 49 µM | IGROV-1 > 100 µM | OVCAR-5 > 100 µM | OVCAR-8 > 100 µM | SF-268 > 100 µM | CAKI-1 > 100 µM | EKVX > 100 µM

Cc1ccc(C(=O)N/N=C2/C(=O)c3c4ccccc4cc4cccc2c34)cc1
inactive: SK-MEL-28 17.7 µM | NCI-H23 24.6 µM | LOX IMVI 12.4 µM | HT-29 21.6 µM | HOP-62 16.2 µM | SF-295 19.5 µM | SF-539 15.5 µM | A498 > 100 µM | SR 1.99 µM | UO-31 17.2 µM | K562 > 21.1 µM | UACC-257 > 87.9 µM | IGROV-1 15.8 µM | UACC-62 26.9 µM | OVCAR-5 > 70 µM | OVCAR-8 22.4 µM | SF-268 18.7 µM | CAKI-1 25.4 µM | EKVX 40.2 µM
